For test [1], the target named is Muscarinic acetylcholine receptor M2 (Mus musculus) (UniProt Q9ERZ4). Kind of test: In vivo determination of peripheral M2 receptor mediated tremor, cholinergic side effect.
Test [2] shares this target. Description: In vivo determination of peripheral M2 receptor mediated salivation, cholinergic side effect.
The target is the same in test [3]. Description: In vivo determination of peripheral M2 receptor mediated hypothermia, cholinergic side effect.
Test [4] has the same target. Description: Compound was tested against peripheral M2 receptor mediated cholinergic side effect hypothermia; Very flat dose-response curve with about 50% of maximum response at 350 umol/kg.

Regarding `CCn1nnc(C2=CCCNC2)n1`, the values for the ED50 in test [1], in test [2] and in test [3] were greater than 150 µmol/kg, 41 µmol/kg and 78 µmol/kg, respectively.
As for `CCN1C(=O)CC2(CCN(C)CC2)C1=O`, the values for the ED50 in test [1], in test [2] and in test [3] were 38 µmol/kg, 2.5 µmol/kg and 8.6 µmol/kg, respectively.
As to `C[N+](C)(C)CCOC(N)=O`, the ED50 in test [2] came out at 120 µmol/kg; in test [3], 90 µmol/kg.
Consider `CN1CCC=C(c2cnn(C)n2)C1`, for which the ED50 in test [1] is greater than 110 µmol/kg; in test [2], 3.6 µmol/kg; in test [3] it was 5.3 µmol/kg.
On to `CCn1ncc(C2=CCCNC2)n1`, for which the ED50 in test [1] amounted to 60 µmol/kg; in test [2], 12 µmol/kg; in test [3], 19 µmol/kg.
Regarding `CCn1ncc(C2=CCCN(C)C2)n1`, the results for the ED50 in test [1], in test [4] and in test [2] were 180 µmol/kg, 350 µmol/kg and 400 µmol/kg, respectively.
Regarding `CCCCn1ncc(C2=CCCN(C)C2)n1`, the ED50 in test [1] is 72 µmol/kg; in test [2] it was greater than 160 µmol/kg; in test [3], 60 µmol/kg.

The ED50 is the dose at which the effect has come halfway, by size or by number of responders. Read a high ED50 as weaker potency.

These data come from ChEMBL document CHEMBL1127749 (J Med Chem, 1994).
